Assays:
Caov-3 cells = experiment: Caov-3 cellular viability assay (ATP-Lite, 72 h); format: cell-based; conditions: Homo sapiens, ATP-Lite luminescence, % viability relative to DMSO
Procedure: Caov-3 cell line was purchased from ATCC (ATCC® HTB-75™). Cells were isolated from the ovary of a ovarian cancer patient.
Caov-3 cells are cultured in DMEM (ATCC 30-2002) containing 10% heat-inactivated and 0.22 μm filtered FBS (Gibco 10270-106). The cells are seeded at 2.5E+4cell/cm^2 within the recommended subcultivation ratio of 1:3 to 1:6, as stated on the certificate of analysis issues by the provider of the cells.
(§1) Cellular viability assay: Caov-3 cells were plated (50 μL) in 96-well cell culture microplates (PS, F-Bottom black, Cellstar, Greiner 655086) at final concentration of 10000 cells/well. The compounds of the invention were dissolved in DMSO, and a titration curve was generated at 1000× final concentration. Compounds were then diluted 500× in tissue culture medium (RPMI-1640, 10% FBS). Then 50 μl of test compound were added to Caov-3 cells in a final DMSO concentration of 0.1%, final volume 100 μl. A gas permeable sealing membrane was applied to the plate to prevent evaporation (Breathe-Easy sealing membrane, Sigma Z380059-1PK) and cells were incubated for 72 h at 37° C., 5% CO2, 80% RH. After 72 h of treatment, the plates were taken out of the incubator and left for a few minutes at room temperature. 100 μl of the reconstituted reagent ATP-Lite One Step (Perkin Elmer, 6016739) were added to each well. The plates were shaken for 2 min at 700 rpm and placed in the dark for 10 minutes at room temperature before measurement of luminescence intensity with Envision instrument. The raw data were expressed in RLU. Results were expressed in % of viability relative to DMSO control and an IC50 was calculated based on the concentration-response profile of individual compounds.

[1] = biological target: T1, recombinant METTL3/METTL14 complex (Homo sapiens, UniProt Q86U44); experiment: METTL3/14 Scintillation Proximity Assay (SPA), RNA methyltransferase activity; format: biochemical; conditions: 5.31 nM METTL3/14 complex, 250 nM RNA substrate, 1 μM 3H-SAM, 90 min; for compounds marked * best of the two separated forms
T1 construct: purchased Active Motif 311970; host or cells: Sf9 cells

Kasumi-1 cells = experiment: Kasumi-1 cellular viability assay (ATP-Lite, 72 h); format: cell-based; conditions: Homo sapiens, ATP-Lite luminescence, % viability relative to DMSO
Procedure: Kasumi-1 cell line was purchased from ATCC (ATCC® CRL2724™). Cells were isolated from the peripheral blood of a child with acute myeloid leukemia (AML FAB M2) (in 2nd relapse after bone marrow transplantation) in 1989. Most cells are round. Kasumi-1 cells are observed to grow individually or in small clumps in suspension.
Kasumi-1 cells are cultured in RPMI-1640 (Gibco A10491-01) containing 10% heat-inactivated and 0.22 μm filtered FBS (Gibco 10270-106) at a density of 3E+5 and 3E+6 viable cell/mL following the certificate of analysis.
as §1, with “assay: Kasumi-1” for “assay: Caov-3”, “of 15000” for “of 10000”, “to Kasumi-1” for “to Caov-3”, “After 72h” for “After 72 h”, “6016739) was” for “6016739) were”

T1 sequence (Q86U44 whole entry): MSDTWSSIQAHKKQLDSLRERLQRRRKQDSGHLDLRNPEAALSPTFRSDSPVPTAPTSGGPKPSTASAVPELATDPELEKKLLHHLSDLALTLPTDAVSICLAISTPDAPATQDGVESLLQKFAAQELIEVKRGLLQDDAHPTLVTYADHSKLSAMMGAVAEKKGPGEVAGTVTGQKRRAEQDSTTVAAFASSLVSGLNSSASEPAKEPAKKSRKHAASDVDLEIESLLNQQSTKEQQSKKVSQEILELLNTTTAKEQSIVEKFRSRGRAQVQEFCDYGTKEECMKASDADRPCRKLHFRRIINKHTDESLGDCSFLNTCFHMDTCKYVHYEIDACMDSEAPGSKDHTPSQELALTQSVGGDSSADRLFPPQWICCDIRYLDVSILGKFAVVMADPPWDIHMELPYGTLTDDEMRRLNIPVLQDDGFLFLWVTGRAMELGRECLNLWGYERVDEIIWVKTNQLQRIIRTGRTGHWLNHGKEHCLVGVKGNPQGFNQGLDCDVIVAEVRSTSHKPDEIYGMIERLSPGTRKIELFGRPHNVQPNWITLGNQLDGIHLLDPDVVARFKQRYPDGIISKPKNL
T1 sequence (Q9HCE5 whole entry partner): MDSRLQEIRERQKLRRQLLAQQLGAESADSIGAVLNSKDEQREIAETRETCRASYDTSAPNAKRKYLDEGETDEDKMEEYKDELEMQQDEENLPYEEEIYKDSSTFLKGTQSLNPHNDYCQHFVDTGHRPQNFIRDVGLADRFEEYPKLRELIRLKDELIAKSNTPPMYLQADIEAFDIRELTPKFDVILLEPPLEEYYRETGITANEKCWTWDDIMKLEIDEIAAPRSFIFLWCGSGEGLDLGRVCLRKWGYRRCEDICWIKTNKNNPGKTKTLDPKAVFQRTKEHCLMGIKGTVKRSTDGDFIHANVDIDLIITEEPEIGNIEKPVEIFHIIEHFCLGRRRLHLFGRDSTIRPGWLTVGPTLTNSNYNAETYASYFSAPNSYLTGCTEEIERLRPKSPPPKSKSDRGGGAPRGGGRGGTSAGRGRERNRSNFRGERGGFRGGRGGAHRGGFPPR

COc1cc(-c2cn(C(C)n3ccc(N4CCC[C@@H](NCC5CCC5)C4)cc3=O)nn2)c2cn[nH]c2c1 (mixture of isomers) [Compound 050, 4-((R)-3-((cyclobutylmethyl)amino)piperidin-1-yl)-1-(1-(4-(6-methoxy-1H-indazol-4-yl)-1H-1,2,3-triazol-1-yl)ethyl)pyridin-2(1H)-one]
IC50 (Caov-3 cells): ≤ 500 nM | IC50 [1]: ≤ 50 nM | IC50 (Kasumi-1 cells): ≤ 0.5 µM

COc1cncc(-c2cn(C(C)c3ccc(N4CCC[C@@H](NCC5CCC5)C4)cc3)nn2)c1 (mixture of isomers) [Compound 076, (3R)-N-(cyclobutylmethyl)-1-(4-(1-(4-(5-methoxypyridin-3-yl)-1H-1,2,3-triazol-1-yl)ethyl)phenyl)piperidin-3-amine]
IC50 (Caov-3 cells): 500 to 5000 nM | IC50 [1]: ≤ 50 nM | IC50 (Kasumi-1 cells): 0.5 to 5 µM

COc1cnnc(-c2cn(C(C)n3ccc(N4CCC[C@@H](NCC5CCC5)C4)cc3=O)nn2)c1 (mixture of isomers) [Compound 093, 4-((R)-3-((cyclobutylmethyl)amino)piperidin-1-yl)-1-(1-(4-(5-methoxypyridazin-3-yl)-1H-1,2,3-triazol-1-yl)ethyl)pyridin-2(1H)-one]
IC50 (Caov-3 cells): 500 to 5000 nM | IC50 [1]: ≤ 50 nM | IC50 (Kasumi-1 cells): 0.5 to 5 µM

CC(c1cnn(-c2cncc(N(C)C)c2)c1)n1ccc(N2CCC[C@@H](NCC3CCC3)C2)cc1=O (mixture of isomers) [Compound 156, 4-((R)-3-((cyclobutylmethyl)amino)piperidin-1-yl)-1-(1-(1-(5-(dimethylamino)pyridin-3-yl)-1H-pyrazol-4-yl)ethyl)pyridin-2(1H)-one]
IC50 (Caov-3 cells): ≤ 500 nM | IC50 [1]: ≤ 50 nM | IC50 (Kasumi-1 cells): ≤ 0.5 µM

CC(n1cnc(-c2cncc(N3CCCC3)c2)c1)n1ccc(N2CCC[C@@H](NCC3CC3)C2)cc1=O (mixture of isomers) [Compound 252, 4-((R)-3-((cyclopropylmethyl)amino)piperidin-1-yl)-1-(1-(4-(5-(pyrrolidin-1-yl)pyridin-3-yl)-1H-imidazol-1-yl)ethyl)pyridin-2(1H)-one]
IC50 (Caov-3 cells): ≤ 500 nM | IC50 [1]: ≤ 50 nM | IC50 (Kasumi-1 cells): ≤ 0.5 µM

CC(N[C@@H]1CCCN(c2ccc(C3(C(=O)Nc4cc(=O)n5ccccc5n4)COC3)nc2)C1)C1CCC1 (mixture of isomers) [Compound 336, 3-(5-((3R)-3-((1-cyclobutylethyl)amino)piperidin-1-yl)pyridin-2-yl)-N-(4-oxo-4H-pyrido[1,2-a]pyrimidin-2-yl)oxetane-3-carboxamide]
IC50 (Caov-3 cells): ≤ 500 nM | IC50 [1]: ≤ 50 nM | IC50 (Kasumi-1 cells): ≤ 0.5 µM

COc1cc(-c2cn(C(C)c3ccc(N4CCC[C@@H](NCC5CCC5)C4)nn3)nn2)c2cn[nH]c2c1 (single isomer, unassigned) [Compound 037]
IC50 (Caov-3 cells): ≤ 500 nM | IC50 [1]: ≤ 50 nM | IC50 (Kasumi-1 cells): ≤ 0.5 µM

CC(NC(=O)c1cc(=O)n2ccccc2n1)c1ccc(N2CCC[C@@H](NCC3CCC3)C2)nn1 (single isomer, unassigned) [Compound 051]
IC50 (Caov-3 cells): 500 to 5000 nM | IC50 [1]: ≤ 50 nM | IC50 (Kasumi-1 cells): > 5 µM

COc1cncc(-c2cn(C(C)n3ccc(N4CCC[C@@H](NCC5CCC5)C4)cc3=O)nn2)c1 (single isomer, unassigned) [Compound 055]
IC50 (Caov-3 cells): ≤ 500 nM | IC50 [1]: ≤ 50 nM | IC50 (Kasumi-1 cells): ≤ 0.5 µM

CC(NC(=O)c1cc(=O)n2ccccc2n1)c1ccc(N2CCC[C@@H](NCC3CCC3)C2)cn1 (single isomer, unassigned) [Compound 058]
IC50 (Caov-3 cells): 500 to 5000 nM | IC50 [1]: ≤ 50 nM | IC50 (Kasumi-1 cells): 0.5 to 5 µM

O=C(NC(c1ccc(N2CCC[C@@H](NCC3CCC3)C2)nn1)C(F)(F)F)c1cc(=O)n2ccccc2n1 (single isomer, unassigned) [Compound 065]
IC50 (Caov-3 cells): 500 to 5000 nM | IC50 [1]: ≤ 50 nM | IC50 (Kasumi-1 cells): > 5 µM

COc1cncc(-c2cn(C(C)c3ccc(N4CCC[C@@H](NCC5CCC5)C4)nn3)nn2)c1 (single isomer, unassigned) [Compound 066]
IC50 (Caov-3 cells): 500 to 5000 nM | IC50 [1]: ≤ 50 nM | IC50 (Kasumi-1 cells): 0.5 to 5 µM

COc1cncc(-c2cn(C(C)c3ccc(N4CCC[C@@H](NCC5CCC5)C4)nc3)nn2)c1 (single isomer, unassigned) [Compound 071]
IC50 (Caov-3 cells): 500 to 5000 nM | IC50 [1]: ≤ 50 nM | IC50 (Kasumi-1 cells): 0.5 to 5 µM

COc1cncc(-c2cn(C(C)c3ccc(N4CCC[C@@H](NCC5CCC5)C4)cn3)nn2)c1 (single isomer, unassigned) [Compound 073]
IC50 (Caov-3 cells): 500 to 5000 nM | IC50 [1]: ≤ 50 nM | IC50 (Kasumi-1 cells): 0.5 to 5 µM

CCC(NC(=O)c1cc(=O)n2ccccc2n1)c1ccc(N2CCC[C@@H](NCC3CCC3)C2)nn1 (single isomer, unassigned) [Compound 083]
IC50 (Caov-3 cells): 500 to 5000 nM | IC50 [1]: ≤ 50 nM | IC50 (Kasumi-1 cells): > 5 µM

COc1cc(-c2cn(Cc3ccc(N4CCC[C@@H](N(C)CC5CCC5)C4)nn3)nn2)c2cn[nH]c2c1 [Compound 022, (R)-N-(cyclobutylmethyl)-1-(6-((4-(6-methoxy-1H-indazol-4-yl)-1H-1,2,3-triazol-1-yl)methyl)pyridazin-3-yl)-N-methylpiperidin-3-amine]
IC50 (Caov-3 cells): > 5000 nM | IC50 (Kasumi-1 cells): 0.5 to 5 µM

COc1cc(-c2cn(Cc3ccc(N4CCC[C@@H](NC5CCCC5)C4)nn3)nn2)c2cn[nH]c2c1 [Compound 023, (R)-N-cyclopentyl-1-(6-((4-(6-methoxy-1H-indazol-4-yl)-1H-1,2,3-triazol-1-yl)methyl)pyridazin-3-yl)piperidin-3-amine]
IC50 (Caov-3 cells): 500 to 5000 nM | IC50 (Kasumi-1 cells): 0.5 to 5 µM

COc1cc(-c2cn(Cn3cnc(N4CCC[C@@H](NCC5CCC5)C4)cc3=O)nn2)c2cn[nH]c2c1 [Compound 041, (R)-6-(3-((cyclobutylmethyl)amino)piperidin-1-yl)-3-((4-(6-methoxy-1H-indazol-4-yl)-1H-1,2,3-triazol-1-yl)methyl)pyrimidin-4(3H)-one]
IC50 [1]: 50 to 500 nM | IC50 (Kasumi-1 cells): > 5 µM

COc1cc(-c2cn(Cc3ncc(N4CCCC(NCC5CCC5)C4)cn3)nn2)c2cn[nH]c2c1 (stereo not shown) [Compound 043, N-(cyclobutylmethyl)-1-(2-((4-(6-methoxy-1H-indazol-4-yl)-1H-1,2,3-triazol-1-yl)methyl)pyrimidin-5-yl)piperidin-3-amine]
IC50 [1]: ≤ 50 nM | IC50 (Kasumi-1 cells): > 5 µM

COc1cc(-c2cn(Cc3cnc(N4CCCC(NCC5CCC5)C4)nc3)nn2)c2cn[nH]c2c1 (stereo not shown) [Compound 046, N-(cyclobutylmethyl)-1-(5-((4-(6-methoxy-1H-indazol-4-yl)-1H-1,2,3-triazol-1-yl)methyl)pyrimidin-2-yl)piperidin-3-amine]
IC50 [1]: 50 to 500 nM | IC50 (Kasumi-1 cells): > 5 µM

COc1cc(-c2cn(Cc3ccc(N4CCCC(NCC5CCC5)C4)c(=O)[nH]3)nn2)c2cn[nH]c2c1 (stereo not shown) [Compound 052, 3-(3-((cyclobutylmethyl)amino)piperidin-1-yl)-6-((4-(6-methoxy-1H-indazol-4-yl)-1H-1,2,3-triazol-1-yl)methyl)pyridin-2(1H)-one]
IC50 [1]: 50 to 500 nM | IC50 (Kasumi-1 cells): > 5 µM

c1ncc(C2CC2)cc1-c1cn(C2(c3ccc(N4CCC[C@H](NCC5CC5)C4)cn3)COC2)nn1 [Compound 351, (S)—N-(cyclopropylmethyl)-1-(6-(3-(4-(5-cyclopropylpyridin-3-yl)-1H-1,2,3-triazol-1-yl)oxetan-3-yl)pyridin-3-yl)piperidin-3-amine]
IC50 [1]: 50 to 500 nM | IC50 (Kasumi-1 cells): 0.5 to 5 µM

CC(c1ccc(N2CCC[C@@H](NCC3CC3)C2)nn1)c1nnc(-c2cncc(N3CCCC3)n2)s1 (stereo partly drawn) [Compound 353, (3R)—N-(cyclopropylmethyl)-1-(6-(1-(5-(6-(pyrrolidin-1-yl)pyrazin-2-yl)-1,3,4-thiadiazol-2-yl)ethyl)pyridazin-3-yl)piperidin-3-amine]
IC50 (Caov-3 cells): ≤ 500 nM | IC50 [1]: ≤ 50 nM
